Earlier results in patent US10709666B2, “Carrier particles for dry powder formulations for inhalation” (CHIESI FARMACEUTICI S.P.A., priority 2017, dated 2020).

Settings: room temperature

| saturated concentration in water | SMILES |
| --- | --- |
| 18-19 % w/v | O.OC[C@H]1O[C@@H](O[C@H]2[C@H](O)[C@@H](O)[C@@H](O)O[C@@H]2CO)[C@H](O)[C@@H](O)[C@H]1O [alpha-lactose monohydrate] |
| 18-21 % w/v | OC[C@@H](O)[C@@H](O)[C@H](O)[C@H](O)CO [mannitol] |
